According to patent publication US10383838B2, “Concentrated liquid diet” (The Nisshin OilliO Group, Ltd., priority 2008, dated 2019):

Test system: gastric mucosa of rat
Assay: Test for investigating irritation of gastric mucosa in rat
Format: in vivo, Wistar rats
Details: oral after fasting 18 hrs, dose 2 g/kg BW, stomach observed 1 hour after administration
Protocol: Five male 10-week old Wistar rats having a body weight of about 200 g (Japan SLC, Inc.) as one test group were subjected to tests by administration. […] The amount of the triglyceride administered was 2 g per kg of body weight. After placing at rest for 1 hour following the administration, an incision was made in the abdomen under anesthesia, and the stomach was extirpated. Then, the extirpated stomach was incised along the greater curvature, and the gastric mucosa was washed with physiological saline and visually observed, with use of a loupe as needed. It should be noted that evaluation in connection with the irritation of gastric mucosa was made in accordance with a method described in a document (Yakugaku Zasshi 89 (8): 1114-1118, 1978). The criteria of evaluation are shown below.
(−): Nine or less areas of patchy redness found.
(+): Ten or more areas of patchy redness found, and sum total of each length of erosion being no greater than 2 mm.
(++): Twenty or more areas of patchy redness found, and sum total of each length of erosion being no greater than 10 mm.
(+++): Sum total of each length of ulcer, or erosion being no less than 10 mm.
It is to be noted that when evaluation was made as (−), the number of areas of patchy redness was counted.

CCO [Positive Control Group, ethanol]
Irritation of gastric mucosa: (+++) (Sum total of each length of ulcer, or erosion being no less than 10 mm.)
